Measurements taken from US8450270B2 (Indiana University Research and Technology Corporation, priority 2008, dated 2013).
Square brackets hold non-standard residues; d marks the D form. Ends that are not written are not given here. Peptide text beside a SMILES is read from it. Dab = NCC[C@H](N)C(=O)O; Aib = CC(C)(N)C(=O)O

Experiments:
Glucagon Receptor = Glucagon Receptor (Homo sapiens, UniProt P47871); assay: Functional assay-cAMP synthesis (luciferase reporter, HEK293), glucagon receptor; settings: for % activity*: glucagon receptor
Chain of Glucagon Receptor (P47871 26-477): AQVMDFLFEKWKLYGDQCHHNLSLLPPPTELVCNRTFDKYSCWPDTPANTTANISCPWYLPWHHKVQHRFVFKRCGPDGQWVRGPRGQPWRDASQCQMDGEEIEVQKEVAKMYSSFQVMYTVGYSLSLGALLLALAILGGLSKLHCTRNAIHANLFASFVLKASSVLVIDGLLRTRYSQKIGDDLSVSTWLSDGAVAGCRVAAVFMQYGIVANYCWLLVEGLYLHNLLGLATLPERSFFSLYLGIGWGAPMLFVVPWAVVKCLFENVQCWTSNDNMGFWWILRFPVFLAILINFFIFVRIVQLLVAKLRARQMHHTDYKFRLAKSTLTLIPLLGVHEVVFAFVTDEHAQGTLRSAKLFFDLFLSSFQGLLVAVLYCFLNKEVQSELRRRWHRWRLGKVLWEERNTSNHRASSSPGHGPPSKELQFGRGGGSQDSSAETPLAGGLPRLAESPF

[1] = Glucagon solubility assay; format: physicochemical
[2] = Table 8, wildtype glucagon = 100

Molecule	% activity* (Glucagon Receptor; Table 7) [%]	also measured
CCCC[C@H](NC(=O)[C@H](CC(C)C)NC(=O)[C@H](Cc1c[nH]c2ccccc12)NC(=O)[C@H](C)NC(=O)[C@@H](NC(=O)[C@H](Cc1ccccc1)NC(=O)[C@H](CCC(=O)O)NC(=O)[C@H](C)NC(=O)[C@H](C)NC(=O)[C@H](CCCNC(=N)N)NC(=O)[C@H](CCCNC(=N)N)NC(=O)[C@@H](NC(=O)[C@H](CC(=O)O)NC(=O)[C@H](CC(C)C)NC(=O)[C@H](Cc1ccc(O)cc1)NC(=O)[C@H](CCCCN)NC(=O)[C@H](CO)NC(=O)[C@H](Cc1ccc(O)cc1)NC(=O)[C@H](CC(=O)O)NC(=O)[C@H](CO)NC(=O)[C@@H](NC(=O)[C@H](Cc1ccccc1)NC(=O)[C@@H](NC(=O)CNC(=O)[C@H](CCC(=O)NC)NC(=O)[C@H](CO)NC(=O)[C@@H](N)Cc1c[nH]cn1)[C@@H](C)O)[C@@H](C)O)[C@@H](C)O)C(C)C)C(=O)N[C@@H](CC(=O)O)C(=O)N[C@@H](CCC(=O)O)C(=O)O [SEQ ID NO: 65]	13	EC50 (Glucagon Receptor; EC50 at Glucagon Receptor (nM), Table 7): 0.48 nM
CCCC[C@H](NC(=O)[C@H](CC(C)C)NC(=O)[C@H](Cc1c[nH]c2ccccc12)NC(=O)[C@H](C)NC(=O)[C@@H](NC(=O)[C@H](Cc1ccccc1)NC(=O)[C@H](CCC(=O)O)NC(=O)[C@H](C)NC(=O)[C@H](C)NC(=O)[C@H](CCCNC(=N)N)NC(=O)[C@H](CCCNC(=N)N)NC(=O)[C@@H](NC(=O)[C@H](CC(=O)O)NC(=O)[C@H](CC(C)C)NC(=O)[C@H](Cc1ccc(O)cc1)NC(=O)[C@H](CCCCN)NC(=O)[C@H](CO)NC(=O)[C@H](Cc1ccc(O)cc1)NC(=O)[C@H](CC(=O)O)NC(=O)[C@H](CO)NC(=O)[C@@H](NC(=O)[C@H](Cc1ccccc1)NC(=O)[C@@H](NC(=O)CNC(=O)[C@H](CC[S+](C)[O-])NC(=O)[C@H](CO)NC(=O)[C@@H](N)Cc1c[nH]cn1)[C@@H](C)O)[C@@H](C)O)[C@@H](C)O)C(C)C)C(=O)N[C@@H](CC(=O)O)C(=O)N[C@@H](CCC(=O)O)C(=O)O (stereo partly drawn) [SEQ ID NO: 66]	7	–
CCCC[C@H](NC(=O)[C@H](CC(C)C)NC(=O)[C@H](Cc1c[nH]c2ccccc12)NC(=O)[C@H](C)NC(=O)[C@@H](NC(=O)[C@H](Cc1ccccc1)NC(=O)[C@H](CCC(=O)O)NC(=O)[C@H](C)NC(=O)[C@H](C)NC(=O)[C@H](CCCNC(=N)N)NC(=O)[C@H](CCCNC(=N)N)NC(=O)[C@@H](NC(=O)[C@H](CC(=O)O)NC(=O)[C@H](CC(C)C)NC(=O)[C@H](Cc1ccc(O)cc1)NC(=O)[C@H](CCCCN)NC(=O)[C@H](CO)NC(=O)[C@H](Cc1ccc(O)cc1)NC(=O)[C@H](CC(=O)O)NC(=O)[C@H](CO)NC(=O)[C@@H](NC(=O)[C@H](Cc1ccccc1)NC(=O)[C@@H](NC(=O)CNC(=O)[C@H](CCCNC(C)=O)NC(=O)[C@H](CO)NC(=O)[C@@H](N)Cc1c[nH]cn1)[C@@H](C)O)[C@@H](C)O)[C@@H](C)O)C(C)C)C(=O)N[C@@H](CC(=O)O)C(=O)N[C@@H](CCC(=O)O)C(=O)O [SEQ ID NO: 67]	7	–
CC(=O)NCC[C@H](NC(=O)[C@H](CO)NC(=O)[C@@H](N)Cc1c[nH]cn1)C(=O)NCC(=O)N[C@H](C(=O)N[C@@H](Cc1ccccc1)C(=O)N[C@H](C(=O)N[C@@H](CO)C(=O)N[C@@H](CC(=O)O)C(=O)N[C@@H](Cc1ccc(O)cc1)C(=O)N[C@@H](CO)C(=O)N[C@@H](CCCCN)C(=O)N[C@@H](Cc1ccc(O)cc1)C(=O)N[C@@H](CC(C)C)C(=O)N[C@@H](CC(=O)O)C(=O)NC(C)(C)C(=O)N[C@@H](CCCNC(=N)N)C(=O)N[C@@H](CCCNC(=N)N)C(=O)N[C@@H](C)C(=O)N[C@@H](C)C(=O)N[C@@H](CC(=O)O)C(=O)N[C@@H](Cc1ccccc1)C(=O)N[C@H](C(=O)N[C@@H](C)C(=O)N[C@@H](Cc1c[nH]c2ccccc12)C(=O)N[C@@H](CC(C)C)C(=O)N[C@@H](CC(C)C)C(=O)N[C@@H](CC(=O)O)C(=O)N[C@H](C(=O)NCC(=O)N1CCC[C@H]1C(=O)N[C@@H](CO)C(=O)N[C@@H](CO)C(=O)NCC(=O)N[C@@H](C)C(=O)N1CCC[C@H]1C(=O)N1CCC[C@H]1C(=O)N1CCC[C@H]1C(=O)N[C@@H](CO)C(N)=O)[C@@H](C)O)C(C)C)[C@@H](C)O)[C@@H](C)O [SEQ ID NO: 72] (H-HS[Dab](Ac)GTFTSDYSKYLD[Aib]RRAADFVAWLLDTGPSSGAPPPS-NH2; N-terminus assumed)	–	% activity* (Glucagon Receptor; [2]): 113%
CC(=O)NCC[C@H](NC(=O)[C@H](CO)NC(=O)[C@@H](N)Cc1c[nH]cn1)C(=O)NCC(=O)N[C@H](C(=O)N[C@@H](Cc1ccccc1)C(=O)N[C@H](C(=O)N[C@@H](CO)C(=O)N[C@@H](CC(=O)O)C(=O)N[C@@H](Cc1ccc(O)cc1)C(=O)N[C@@H](CO)C(=O)N[C@@H](CCCCN)C(=O)N[C@@H](Cc1ccc(O)cc1)C(=O)N[C@@H](CC(C)C)C(=O)N[C@@H](CC(=O)O)C(=O)NC(C)(C)C(=O)N[C@@H](CCCNC(=N)N)C(=O)N[C@@H](CCCNC(=N)N)C(=O)N[C@@H](C)C(=O)N[C@@H](CO)C(=O)N[C@@H](CC(=O)O)C(=O)N[C@@H](Cc1ccccc1)C(=O)N[C@H](C(=O)N[C@@H](CO)C(=O)N[C@@H](Cc1c[nH]c2ccccc12)C(=O)N[C@@H](CC(C)C)C(=O)N[C@@H](CC(C)C)C(=O)N[C@@H](CC(=O)O)C(=O)N[C@@H](CCC(=O)O)C(=O)O)C(C)C)[C@@H](C)O)[C@@H](C)O [SEQ ID NO: 73] (H-HS[Dab](Ac)GTFTSDYSKYLD[Aib]RRASDFVSWLLDE-OH; N-terminus and C-terminus assumed)	–	% activity* (Glucagon Receptor; [2]): 54%
CC(=O)NCC[C@H](NC(=O)[C@H](CO)NC(=O)[C@@H](N)Cc1c[nH]cn1)C(=O)NCC(=O)N[C@H](C(=O)N[C@@H](Cc1ccccc1)C(=O)N[C@H](C(=O)N[C@@H](CO)C(=O)N[C@@H](CC(=O)O)C(=O)N[C@@H](Cc1ccc(O)cc1)C(=O)N[C@@H](CO)C(=O)N[C@@H](CCCCN)C(=O)N[C@@H](Cc1ccc(O)cc1)C(=O)N[C@@H](CC(C)C)C(=O)N[C@@H](CC(=O)O)C(=O)NC(C)(C)C(=O)N[C@@H](CCCNC(=N)N)C(=O)N[C@@H](CCCNC(=N)N)C(=O)N[C@@H](C)C(=O)N[C@H](C(=O)N[C@@H](CC(=O)O)C(=O)N[C@@H](Cc1ccccc1)C(=O)N[C@H](C(=O)N[C@H](C(=O)N[C@@H](Cc1c[nH]c2ccccc12)C(=O)N[C@@H](CC(C)C)C(=O)N[C@@H](CC(C)C)C(=O)N[C@@H](CC(=O)O)C(=O)N[C@@H](CCC(=O)O)C(=O)O)[C@@H](C)O)C(C)C)[C@@H](C)O)[C@@H](C)O)[C@@H](C)O [SEQ ID NO: 74] (H-HS[Dab](Ac)GTFTSDYSKYLD[Aib]RRATDFVTWLLDE-OH; N-terminus and C-terminus assumed)	–	% activity* (Glucagon Receptor; [2]): 46%
Glucagon, Cys17PEG5K: Glucagon Cys17(1-29) reacted with methoxy poly(ethyleneglycol) maleimide avg. M.W.5000	–	Percent Soluble ([1]; pH 7): 94%
HSQGTFTSDYSKYLESRRAQDFVQWLMDT [D28, E15]	–	solubility relative to native glucagon ([1]; pH values of 5.5 and 7.0, FIGS. 3 & 4): superior solubility

The next lines start with results.

% activity* (Glucagon Receptor; Table 7) [%]	Molecule	also measured
15	CSCC[C@H](NC(=O)[C@H](CC(C)C)NC(=O)[C@H](Cc1c[nH]c2ccccc12)NC(=O)[C@H](C)NC(=O)[C@@H](NC(=O)[C@H](Cc1ccccc1)NC(=O)[C@H](CC(=O)O)NC(=O)[C@H](C)NC(=O)[C@H](C)NC(=O)[C@H](CCCNC(=N)N)NC(=O)[C@H](CCCNC(=N)N)NC(=O)C(C)(C)NC(=O)[C@H](CC(=O)O)NC(=O)[C@H](CC(C)C)NC(=O)[C@H](Cc1ccc(O)cc1)NC(=O)[C@H](CCCCN)NC(=O)[C@H](CO)NC(=O)[C@H](Cc1ccc(O)cc1)NC(=O)[C@H](CC(=O)O)NC(=O)[C@H](CO)NC(=O)[C@@H](NC(=O)[C@H](Cc1ccccc1)NC(=O)[C@@H](NC(=O)CNC(=O)[C@H](CCC(N)=O)NC(=O)[C@H](CO)NC(=O)[C@@H](N)Cc1c[nH]cn1)[C@@H](C)O)[C@@H](C)O)C(C)C)C(=O)N[C@@H](CC(=O)O)C(=O)N[C@@H](CCC(=O)O)C(=O)O [SEQ ID NO: 68]	–
86	CSCC[C@H](NC(=O)[C@H](CC(C)C)NC(=O)[C@H](Cc1c[nH]c2ccccc12)NC(=O)[C@H](C)NC(=O)[C@@H](NC(=O)[C@H](Cc1ccccc1)NC(=O)[C@H](CC(=O)O)NC(=O)[C@H](C)NC(=O)[C@H](C)NC(=O)[C@H](CCCNC(=N)N)NC(=O)[C@H](CCCNC(=N)N)NC(=O)C(C)(C)NC(=O)[C@H](CC(=O)O)NC(=O)[C@H](CC(C)C)NC(=O)[C@H](Cc1ccc(O)cc1)NC(=O)[C@H](CCCCN)NC(=O)[C@H](CO)NC(=O)[C@H](Cc1ccc(O)cc1)NC(=O)[C@H](CC(=O)O)NC(=O)[C@H](CO)NC(=O)[C@@H](NC(=O)[C@H](Cc1ccccc1)NC(=O)[C@@H](NC(=O)CNC(=O)[C@H](CCNC(C)=O)NC(=O)[C@H](CO)NC(=O)[C@@H](N)Cc1c[nH]cn1)[C@@H](C)O)[C@@H](C)O)C(C)C)C(=O)N[C@@H](CC(=O)O)C(=O)N[C@@H](CCC(=O)O)C(=O)O [SEQ ID NO: 69]	–
55	CNC(=O)CC[C@H](NC(=O)[C@H](CO)NC(=O)[C@@H](N)Cc1c[nH]cn1)C(=O)NCC(=O)N[C@H](C(=O)N[C@@H](Cc1ccccc1)C(=O)N[C@H](C(=O)N[C@@H](CO)C(=O)N[C@@H](CC(=O)O)C(=O)N[C@@H](Cc1ccc(O)cc1)C(=O)N[C@@H](CO)C(=O)N[C@@H](CCCCN)C(=O)N[C@@H](Cc1ccc(O)cc1)C(=O)N[C@@H](CC(C)C)C(=O)N[C@@H](CC(=O)O)C(=O)NC(C)(C)C(=O)N[C@@H](CCCNC(=N)N)C(=O)N[C@@H](CCCNC(=N)N)C(=O)N[C@@H](C)C(=O)N[C@@H](C)C(=O)N[C@@H](CC(=O)O)C(=O)N[C@@H](Cc1ccccc1)C(=O)N[C@H](C(=O)N[C@@H](C)C(=O)N[C@@H](Cc1c[nH]c2ccccc12)C(=O)N[C@@H](CC(C)C)C(=O)N[C@@H](CCSC)C(=O)N[C@@H](CC(=O)O)C(=O)N[C@@H](CCC(=O)O)C(=O)O)C(C)C)[C@@H](C)O)[C@@H](C)O [SEQ ID NO: 70]	–
